In ChEMBL document CHEMBL5131469, “Design, synthesis and biological evaluation of novel procaine derivatives for intravenous anesthesia” (Bioorg Med Chem Lett, 2022):
The source made the active and inactive calls. The calls are words filed in the database; no cut-off is given here.

How the values were obtained:
[1] = test system: Mus musculus; test: Anesthetic activity in mouse assessed as loss of righting […] administered as single injection via caudal vein; type: functional; settings: route iv
[2] = Lipophilicity, log D of the compound; type: physicochemical; settings: octanol/water
[3] = Toxicity in mouse administered as single injection via caudal vein; settings: in vivo, route iv
[4] = Therapeutic index, ratio of LD50 for toxicity in mouse to ED50 for anesthetic activity in mouse; type: organism-based; settings: in vivo, read-out: Ratio LD50/ED50
[5] = Hepatotoxicity in iv dosed rat assessed as change in AST level administered continuously; type: toxicity, organism-based; settings: in vivo
[6] = Cardiotoxicity in iv dosed rat assessed as change in LDH level administered continuously; type: toxicity, organism-based; settings: in vivo
[7] = Hepatotoxicity in iv dosed rat assessed as change in ALT level administered continuously; type: toxicity, organism-based; settings: in vivo
[8] = Cardiotoxicity in iv dosed rat assessed as change in CK-MB level administered continuously; type: toxicity, organism-based; settings: in vivo
[9] = Toxicity in iv dosed rat administered continuously; type: organism-based; settings: in vivo
[10] = Hepatotoxicity in iv dosed rat assessed as morphological change in liver administered continuously; type: toxicity, organism-based; settings: in vivo
[11] = Toxicity in iv dosed rat assessed as irregular respiratory rhythm administered continuously; type: organism-based; settings: in vivo
[12] = Cardiotoxicity in iv dosed rat assessed as morphological change in heart administered continuously; type: toxicity, organism-based; settings: in vivo
[13] = Nephrotoxicity in iv dosed rat assessed as change in urea level administered continuously; type: toxicity, organism-based; settings: in vivo
[14] = Toxicity in iv dosed rat assessed as cyanosis administered continuously; type: organism-based; settings: in vivo
[15] = Toxicity in mouse assessed as adverse effect at 1.5 times ED50, iv; settings: in vivo
[16] = Toxicity in iv dosed rat assessed as body weight loss administered continuously as infusion for 2 weeks; type: organism-based; settings: in vivo, 336 h
[17] = Nephrotoxicity in iv dosed rat assessed as morphological change in kidney administered continuously; type: toxicity, organism-based; settings: in vivo
[18] = Nephrotoxicity in iv dosed rat assessed as change in creatinine level administered continuously; type: toxicity, organism-based; settings: in vivo
[19] = Toxicity in iv dosed rat assessed as convulsion administered continuously; type: organism-based; settings: in vivo
[20] = Toxicity in iv dosed rat assessed as muscle fibrillation administered continuously; type: organism-based; settings: in vivo
[21] = Toxicity in iv dosed rat assessed as muscular rigidity administered continuously; type: organism-based; settings: in vivo
[22] = test system: Rattus norvegicus; test: Anesthetic activity in iv dosed rat assessed as loss of righting […] administered continuously; type: functional
[23] = Cardiotoxicity in iv dosed rat assessed as change in alpha-HBDH level administered continuously; type: toxicity, organism-based; settings: in vivo
[24] = Therapeutic index, ratio of LD50 for toxicity in iv dosed rat to ED50 for anesthetic activity in iv dosed rat; type: organism-based; settings: in vivo, read-out: Ratio LD50/ED50
[25] = Toxicity in mouse assessed as convulsion at 1.5 times ED50, iv; settings: in vivo
[26] = Toxicity in mouse assessed as ankylosis at 1.5 times ED50, iv; settings: in vivo
[27] = Toxicity in mouse assessed as severe respiratory suppression at 1.5 times ED50, iv; settings: in vivo
[28] = Toxicity in mouse assessed as angular tension at 1.5 times ED50, iv; settings: in vivo
[29] = target: Voltage-gated inwardly rectifying potassium channel KCNH2 (Homo sapiens, UniProt Q12809); test: Inhibition of human ERG
Chain of Voltage-gated inwardly rectifying potassium channel KCNH2 (Q12809 whole entry): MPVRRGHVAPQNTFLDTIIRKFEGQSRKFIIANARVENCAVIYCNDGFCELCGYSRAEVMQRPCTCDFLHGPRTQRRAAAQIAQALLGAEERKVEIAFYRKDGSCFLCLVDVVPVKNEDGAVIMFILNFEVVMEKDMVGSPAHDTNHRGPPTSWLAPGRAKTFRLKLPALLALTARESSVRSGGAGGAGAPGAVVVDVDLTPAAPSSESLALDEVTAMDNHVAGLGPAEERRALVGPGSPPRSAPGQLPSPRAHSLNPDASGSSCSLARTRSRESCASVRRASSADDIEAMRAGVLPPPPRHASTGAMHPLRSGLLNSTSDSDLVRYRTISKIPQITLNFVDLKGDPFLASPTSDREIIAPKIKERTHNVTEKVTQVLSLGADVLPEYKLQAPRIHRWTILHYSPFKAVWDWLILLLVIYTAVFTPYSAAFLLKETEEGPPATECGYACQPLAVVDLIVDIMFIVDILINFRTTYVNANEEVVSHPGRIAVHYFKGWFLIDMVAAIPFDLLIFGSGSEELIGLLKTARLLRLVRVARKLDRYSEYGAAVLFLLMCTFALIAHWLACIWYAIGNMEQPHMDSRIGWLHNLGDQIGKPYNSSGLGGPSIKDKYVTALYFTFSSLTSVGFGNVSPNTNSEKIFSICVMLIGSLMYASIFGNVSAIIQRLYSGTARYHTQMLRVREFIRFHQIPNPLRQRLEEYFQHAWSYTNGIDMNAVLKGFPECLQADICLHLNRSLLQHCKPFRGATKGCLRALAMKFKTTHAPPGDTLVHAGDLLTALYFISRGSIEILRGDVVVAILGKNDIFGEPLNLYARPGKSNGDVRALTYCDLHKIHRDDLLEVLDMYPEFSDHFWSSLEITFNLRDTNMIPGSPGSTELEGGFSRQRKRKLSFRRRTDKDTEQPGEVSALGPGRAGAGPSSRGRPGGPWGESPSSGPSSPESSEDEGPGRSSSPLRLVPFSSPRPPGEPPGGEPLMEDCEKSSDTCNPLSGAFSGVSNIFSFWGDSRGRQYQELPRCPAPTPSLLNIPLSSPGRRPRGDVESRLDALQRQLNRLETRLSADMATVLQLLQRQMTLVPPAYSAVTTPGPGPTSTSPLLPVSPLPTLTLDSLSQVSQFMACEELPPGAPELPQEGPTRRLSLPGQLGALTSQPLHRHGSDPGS

[30] = test system: Mus musculus; test: Anesthetic activity in mouse assessed as reduction in recovery time of righting reflex at 1.5 times ED50, iv; type: functional, organism-based
[31] = test system: HEK293; test: Reversible inhibition of human NR2B receptor expressed in HEK293 cells assessed as inhibition of L-glutamate-induced open-phase current at 500 uM in presence of glycine by whole-cell patch-clamp method relative to control; type: cell-based
[32] = Stability in human liver microsomes measured within 60 mins; type: ADME, Microsome; settings: 1 h
[33] = Stability in plasma (unknown origin); type: ADME, cell-free; settings: unidentified
[34] = Solubility of the compound at pH 2; type: physicochemical; settings: buffer
[35] = Toxicity in mouse assessed as muscular rigidity at 1.5 times ED50, iv; settings: in vivo

| Compound | ED50 [1] | logD [2] | LD50 [3] | selectivity ratio [4] | also measured |
| --- | --- | --- | --- | --- | --- |
| CC(C)N1CCN(CCOC(=O)c2ccc(N)cc2)CC1 | 52.8 mg/kg | 0.92 | 58.6 mg/kg | < 1.5 | – |
| CCN(CCO)CCOC(=O)c1ccc(N)cc1 | 90.2 mg/kg | 0.47 | 115 mg/kg | < 1.5 | – |
| Nc1ccc(C(=O)OCCN(CCO)CCO)cc1 | 128 mg/kg | -0.19 | 160 mg/kg | < 1.5 | – |
| CCN(CC)CCOC(=O)c1ccc(N)cc1 [PROCAINE] | 42.8 mg/kg | 1.07 | 70.5 mg/kg | 1.65 | Activity [5]: Non-Toxic; Activity [6]: Non-Toxic; Activity [7]: Non-Toxic; Activity [8]: Non-Toxic; LD50 [9]: 78.8 mg/kg; Activity [10]: Non-Toxic; Activity [11]: Toxic; Activity [12]: Non-Toxic; Activity [13]: Non-Toxic; Activity [14]: Toxic; Activity [15]: Toxic; Activity [16]: Non-Toxic; Activity [17]: Non-Toxic; Activity [18]: Non-Toxic; Activity [19]: Toxic; Activity [20]: Toxic; Activity [21]: Toxic; ED50 [22]: 50.4 mg/kg; Activity [23]: Non-Toxic; selectivity ratio [24]: 1.56 |
| Nc1ccc(C(=O)OCCN2CCOCC2)cc1 | 148 mg/kg | 0.54 | 365 mg/kg | 2.46 | – |
| CC1CC(C)CN(CCOC(=O)c2ccc(N)cc2)C1 (stereo unspecified) | 33.9 mg/kg | 3.2 | 68.5 mg/kg | 2.02 | Activity [25]: Toxic; Activity [26]: Toxic; Activity [27]: Toxic; Activity [28]: Toxic |
| CC1CN(CCOC(=O)c2ccc(N)cc2)CC(C)O1 (stereo unspecified) | 59.3 mg/kg | 1.24 | 159 mg/kg | 2.68 | Activity [5]: Non-Toxic; Activity [6]: Non-Toxic; Activity [7]: Non-Toxic; Activity [8]: Non-Toxic; LD50 [9]: 180 mg/kg; Activity [10]: Non-Toxic; IC50 [29]: > 30 µM; Activity [12]: Non-Toxic; Activity [13]: Non-Toxic; Activity [30]: Active; Activity [15]: Toxic; Activity [16]: Non-Toxic; Activity [17]: Non-Toxic; Activity [18]: Non-Toxic; inhibition [31]: > 80%; Stability [32]: Stable; Stability [33]: Unstable; ED50 [22]: 66 mg/kg; Activity [23]: Non-Toxic; selectivity ratio [24]: 2.73 |
| Nc1ccc(C(=O)OCCN2CC[S+]([O-])CC2)cc1 | 42.7 mg/kg | 1.55 | 110 mg/kg | 2.57 | solubility [34]: Insoluble |
| CCN1CCN(CCOC(=O)c2ccc(N)cc2)CC1 | 56 mg/kg | 0.81 | 64.3 mg/kg | < 1.5 | – |
| CCN(CCOC)CCOC(=O)c1ccc(N)cc1 | 39.6 mg/kg | 0.96 | 60.3 mg/kg | 1.52 | – |
| CC1COCC(C)N1CCOC(=O)c1ccc(N)cc1 (stereo unspecified) | 160 mg/kg | 0.42 | 399 mg/kg | 2.49 | – |
| CN1CCN(CCOC(=O)c2ccc(N)cc2)CC1 | 84.2 mg/kg | 0.43 | 100 mg/kg | < 1.5 | – |
| Nc1ccc(C(=O)OCCN2CCSCC2)cc1 | 54 mg/kg | 1.58 | 126 mg/kg | 2.33 | solubility [34]: Insoluble |
| Nc1ccc(C(=O)OCCN2CCS(=O)(=O)CC2)cc1 | 45.5 mg/kg | 1.63 | 115 mg/kg | 2.53 | solubility [34]: Insoluble |
| CC1CN(CCOC(=O)c2ccc(N)cc2)CCO1 (stereo unspecified) | 90.2 mg/kg | 1 | 188 mg/kg | 2.08 | Activity [35]: Toxic; Activity [30]: Active |
| CC1COCCN1CCOC(=O)c1ccc(N)cc1 (stereo unspecified) | 119 mg/kg | 0.62 | 253 mg/kg | 2.13 | – |
| COCCN(CCOC)CCOC(=O)c1ccc(N)cc1 | 55.2 mg/kg | 0.83 | 104 mg/kg | 1.89 | – |
| CC(C)(C)N1CCN(CCOC(=O)c2ccc(N)cc2)CC1 | 42.2 mg/kg | 1.15 | 78.4 mg/kg | 1.86 | – |
